Results as given in EP1156045A1, “AMIDE DERIVATIVES AND DRUG COMPOSITIONS” (Nippon Shinyaku Co., Ltd., priority 1999, dated 2000).
Where a name gives a salt, the structure may show the parent alone.

Key:
Acute toxicity = type: in vivo; settings: mice; orally, 300 mg/kg suspension; observed for a week after administration
Method: Each of the compounds in Examples 1, 5, 6, 33, 34, 39, and 48 was administered.

TGF-β = assay: Antagonistic action against TGF-β (type I procollagen α2 promoter-luciferase reporter, TGF-β1 stimulation); type: cell-based; settings: mink lung epithelial cells (Mv1Lu); drug 1 µg/ml, TGF-β1 10 ng/ml; 24 hours; luciferase activity; read-out: Rate of inhibition (%)
Method: The test was carried out according to the method described in J. Clin. Invest., 86, 1489-1495 (1990) and J. Biol. Chem. 265, 13351-13356 (1990). A chimera plasmid was produced in which the promoter region of type I procollagen α2 gene was ligated with a luciferase gene. This plasmid was then transfected into mink lung epithelial cells (Mv1Lu) to produce a cell line stably expressing the luciferase gene under the control of the […]. The drug (1 µg/ml) and TGF-β1 (10 ng/ml) were added to Mv1Lu cells, which were then cultured for 24 hours. Then, the activity of luciferase in the cells was measured by a chemiluminescence method. The rate of inhibition was calculated from the following formula, the rate of inhibition being defined as 100% when the measured luciferase activity was equal to that in the absence of stimulation with TGF-β1: Rate of inhibition = (Lb-Lc)/(Lb-La) × 100 [formula] In this formula, La represents the luciferase activity in the absence of stimulation with TGF-β1, Lb represents the luciferase activity in the presence of stimulation with TGF-β1, and Lc represents the luciferase activity in the presence of TGF-β1 and the test drug.

[1] = tested on: promoter region of the TGF-β1 gene; assay: Inhibitory effect on expression of TGF-β mRNA (TGF-β1 promoter-luciferase reporter, TNF-α stimulation); type: cell-based; settings: mink lung epithelial cells (Mv1Lu); drug 1 µg/ml, TNF-α 10 ng/ml; 24 hours; luciferase activity; read-out: Rate of inhibition (%)
Method: The inhibitory effect of the compounds of the present invention on TGF-β production was evaluated by measuring the inhibition of TGF-β mRNA expression according to the method described in J. Biol. Chem., 264, 402-408 (1989). A chimera plasmid was produced in which the promoter region of the TGF-β1 gene was ligated with a luciferase gene. This plasmid was then transfected into mink lung epithelial cells (Mv1Lu) to produce a cell line stably expressing the luciferase gene under the control of the TGF-β1 promoter. The drug (1 µg/ml) and TNF-α (10 ng/ml) were added to Mv1Lu cells, which were then cultured for 24 hours. Then the activity of luciferase in the cells was measured by a chemiluminescence method. The rate of inhibition was calculated from the following formula, the rate of inhibition being defined as 100% when the measured luciferase activity was equal to that in the absence of stimulation with TNF-α: Rate of inhibition = (Le-Lf)/(Le-Ld) × 100 [formula] In this formula, Ld represents the luciferase activity in the absence of TNF-α, Le represents the luciferase activity in the presence of TNF-α, and Lf represents the luciferase activity in the presence of TNF-α and the test drug.

TGF-β1 = assay: Inhibition of TGF-β production (TGF-β1 released into the medium, ELISA); type: cell-based; settings: human mesangial cells immortalized with SV40, cultured 4 days, TGF-β1 released during the last 2 days; for inhibition at 1 µg/mL: Mesangial cell, read-out: Rate of inhibition (%)
Method: The test was carried out according to the method described in Jpn. J. Pharmacol, 60, 91-96 (1992). That is, human mesangial cells immortalized with SV40 were cultured in 24-well plates, and then the medium was changed to a serum-free medium. The test drugs were added at concentrations of 1 µg/ml or 10 µg/ml, and the cells were cultured for 4 days. The amounts of TGF-β1 (a major type of-TGF-β) released into the medium during the last 2 days were quantified by ELISA kits. The rate of inhibition (%) was calculated from the following formula: Rate of inhibition = (Ta-Tb)/Ta × 100 [formula] In this formula, Ta represents the amount of TGF-β1 released into the medium in the absence of the test drug, and Tb represents the amount of TGF-β1 released into the medium in the presence of the test drug.

Structure (SMILES) | deaths (Acute toxicity) | inhibition at 1 µg/mL (TGF-β) [%] | inhibition at 1 µg/mL [1] [%] | inhibition at 1 µg/mL (TGF-β1; concentration 1 µg/ml) [%] | Rate of inhibition (%) (TGF-β1; concentration 1 µg/ml) | Rate of inhibition (%) (TGF-β1; concentration 10 µg/ml)
Cc1ccc2c(c1)c(C(=O)N1CCN(c3ccccn3)CC1)c(-c1ccccc1)n2C.Cl [Example 1, 1-(1,5-Dimethyl-2-phenylindol-3-ylcarbonyl)-4-(2-pyridyl)piperazine hydrochloride] | No deaths were observed | 31.2 |  |  |  | 
Cn1c(-c2ccccc2)c(C(=O)N2CC[N+]([O-])(c3ccccn3)CC2)c2ccccc21 [Example 5, 1-(1-Methyl-2-phenylindol-3-ylcarbonyl)-4-(2-pyridyl)piperazine-4-oxide] | No deaths were observed | 27.4 | 28.2 | 20.9 |  | 
Cl.Cn1c(-c2ccccc2)c(C(=O)N2CCN(c3ccccn3)CC2)c2ccccc21 [Example 6, 1-(1-Methyl-2-phenylindol-3-ylcarbonyl)-4-(2-pyridyl)piperazine hydrochloride] | No deaths were observed | 44.6 | 50.1 | 30.2 |  | 
Cc1ccc2c(c1)c(C(=O)N1CCN(c3cccnc3)CC1)c(-c1ccccc1)n2C.Cl.Cl [Example 33, 1-(1,5-Dimethyl-2-phenylindol-3-ylcarbonyl)-4-(3-pyridyl)piperazine dihydrochloride] | No deaths were observed | 50.6 | 43.2 |  |  | 
Cc1ccc2c(c1)c(C(=O)N1CCN(c3ccncc3)CC1)c(-c1ccccc1)n2C.Cl [Example 34, 1-(1,5-Dimethyl-2-phenylindol-3-ylcarbonyl)-4-(4-pyridyl)piperazine hydrochloride] | No deaths were observed | 33.8 |  |  |  | 
Cc1cc2c(C(=O)N3CCN(c4ccncc4)CC3)c(-c3ccccc3)n(C)c2cc1C.Cl [Example 39, 1-(1,5,6-Trimethyl-2-phenylindol-3-ylcarbonyl)-4-(4-pyridyl)-piperazine hydrochloride] | No deaths were observed | 52.4 | 27.4 |  |  | 
Cl.Cn1c(-c2ccccc2)c(C(=O)N2CCN(c3ccc([N+](=O)[O-])cn3)CC2)c2ccccc21 [Example 48, 1-(1-Methyl-2-phenylindol-3-ylcarbonyl)-4-(5-nitro-2-pyridyl)-piperazine hydrochloride] | No deaths were observed | 63.7 | 74.7 |  |  | 
Cc1ccc2c(c1)c(C(=O)N1CCN(c3ccc([N+](=O)[O-])cn3)CC1)c(-c1ccccc1)n2C [Example 58, 1-(1,5-Dimethyl-2-phenylindol-3-ylcarbonyl)-4-(5-nitro-2-pyridyl)-piperazine hydrochloride] |  | 34.8 | 30.2 | 27.6 |  | 
COc1ccc2c(c1)c(C(=O)NC1CC3CCC(C1)N3C)c(-c1ccccc1)n2C.Cl (stereo not drawn) [Example 61, N-(endo-8-Methyl-8-azabicyclo[3.2.1]octa-3-yl)-5-methoxy-1-methyl-2-phenylindole-3-carboxamide hydrochloride] |  |  |  |  | 69.7 | 
Cc1ccc2c(C(=O)N[C@@H]3C[C@H]4CC[C@@H](C3)N4C)c(-c3ccccc3)n(C)c2c1.Cl [Example 63, N-(endo-8-Methyl-8-azabicyclo[3.2.1]octa-3-yl)-1,6-dimethyl-2-phenylindole-3-carboxamide hydrochloride] |  |  |  |  | 40.7 | 
Cc1ccc2c(c1)c(C(=O)N[C@H]1C[C@H]3CC[C@@H](C1)N3C)c(-c1ccccc1)n2C.Cl [Example 117, N-(endo-8-Methyl-8-azabicyclo[3.2.1]octa-3-yl)-1,5-dimethyl-2-phenylindole-3-carboxamide hydrochloride] |  |  |  |  | 47.4 | 
Cn1c(-c2ccccc2)c(C(=O)N2CCCN(c3ccccn3)CC2)c2ccccc21 [Example 118, 1-(1-Methyl-2-phenylindol-3-ylcarbonyl)-4-(2-pyridyl)-homopiperazine dihydrochloride] |  | 51.8 | 48.8 |  |  | 
Cc1ccc2c(c1)c(C(=O)N1CCCN(c3ccccn3)CC1)c(-c1ccccc1)n2C [Example 119, 1-(1,5-Dimethyl-2-phenylindol-3-ylcarbonyl)-4-(2-pyridyl)-homopiperazine hydrochloride] |  | 53.8 | 39.2 |  |  | 
Cn1c(-c2ccccc2)c(C(=O)N2CCCN(c3cccnc3)CC2)c2ccccc21 [Example 120, 1-(1-Methyl-2-phenylindol-3-ylcarbonyl)-4-(3-pyridyl)homopiperazine hydrochloride] |  | 44.9 | 27.7 |  |  | 
Cc1ccc2c(c1)c(C(=O)N1CCCN(c3cccnc3)CC1)c(-c1ccccc1)n2C [Example 121, 1-(1,5-Dimethyl-2-phenylindol-3-ylcarbonyl)-4-(3-pyridyl)-homopiperazine hydrochloride] |  | 59 | 40.6 |  |  | 
Cc1ccc2c(c1)c(C(=O)N1CCCN(c3ccc([N+](=O)[O-])cn3)CC1)c(-c1ccccc1)n2C [Example 129, 1-(1,5-Dimethyl-2-phenylindol-3-ylcarbonyl)-4-(5-nitro-2 pyridyl)homopiperazine] |  | 64.3 |  |  |  | 
Cc1ccc2c(c1)c(C(=O)N1CCCN(c3ccc(NS(C)(=O)=O)cn3)CC1)c(-c1ccccc1)n2C [Example 174, 1-(1,5-Dimethyl-2-phenylindol-3-ylcarbonyl)-4-(5-methane-sulfonylamino-2-pyridyl)homopiperazine] |  | 49.8 | 24.8 |  |  | 
COC(=O)c1ccc(N2CCCN(C(=O)c3c(-c4ccccc4)n(C)c4ccc(C)cc34)CC2)nc1 [Example 178, 1-(1,5-Dimethyl-2-phenylindol-3-ylcarbonyl)-4-(5-carbomethoxy-2-pyridyl)-homopiperazine] |  | 102 | 43 |  |  | 
CC(=O)Nc1ccc(N2CCCN(C(=O)c3c(-c4ccccc4)n(C)c4ccc(C)cc34)CC2)nc1 [Example 180, 1-(1,5-Dimethyl-2-phenylindol-3-ylcarbonyl)-4-(5-acetylamino-2-pyridyl)homopiperazine] |  | 48.3 | 25.5 |  |  | 
CCN(CC)S(=O)(=O)c1ccc(N2CCCN(C(=O)c3c(-c4ccccc4)n(C)c4ccc(C)cc34)CC2)nc1 [Example 183, 1-(1,5-Dimethyl-2-phenylindol-3-ylcarbonyl)-4-(5-diethylamino-sulfonyl-2-pyridyl)homopiperazine] |  | 79.3 | 46.9 |  |  | 
Cc1ccc(=O)n(-c2ccccc2)c1 [Perfenidone, reference compound] |  |  |  |  |  | 1.7
